Test results reported in paper PMC9865890, “N-Derivatives of (Z)-Methyl 3-(4-Oxo-2-thioxothiazolidin-5-ylidene)methyl)-1H-indole-2-carboxylates as Antimicrobial Agents—In Silico and In Vitro Evaluation” (Pharmaceuticals, 2023).
In brackets after ≈: the same amount, converted by molar mass. Read-outs that look alike come from different tables or passages of the source.

Assays:
[1] = tested on: P. aeruginosa; assay: Antibacterial microdilution (MIC/MBC); assay type: cell-based; conditions: Pseudomonas aeruginosa, P.a. (P. aeruginosa); for MIC: read-out: MIC
Method: (§1) The synthesized compounds (Table 1) were evaluated for their antibacterial activity against a panel of eight species using a microdilution method with ampicillin and streptomycin as reference drugs. […] The order of activity can be presented as: 8 > 11 > 2 > 1 > 12 > 3 > 17 > 7 > 5 > 13 > 14 > 16 > 9 > 4 = 6 > 15 > 10. […] Cloacae. […] The most sensitive bacteria appeared to be En. cloacae, while E. coli was the most resistant one, followed by M. flavus.
(§2) The following Gram-negative bacteria: Escherichia coli (ATCC 35210), Enterobacter cloacae (clinical isolate), Salmonella typhimurium (ATCC 13311), as well as Gram-positive bacteria: Listeria monocytogenes (NCTC 7973), Bacillus cereus (clinical isolate), and Staphylococcus aureus (ATCC 6538) were used. The organisms were obtained from the Mycological Laboratory, Department of Plant Physiology, Institute for Biological Research “Siniša Stankovic”, Belgrade, Serbia. The minimum inhibitory (MIC) and minimum bactericidal (MBC) concentrations were determined by the modified microdilution method, as previously reported.

[2] = tested on: Listeria monocytogenes (NCTC 7973); assay: Antibacterial microdilution (MIC/MBC); assay type: cell-based; conditions: Listeria monocytogenes, NCTC7973, L.m. (L. monocytogenes); for MIC: read-out: MIC
Method: as §1, §2

[3] = tested on: M. flavus; assay: Antibacterial microdilution (MIC/MBC); assay type: cell-based; conditions: Micrococcus flavus; M.f. (M. flavus)
Method: as §1, §2

[4] = tested on: Staphylococcus aureus (ATCC 6538); assay: Antibacterial microdilution (MIC/MBC); assay type: cell-based; conditions: S.a. (S. aureus)
Method: as §1, §2

[5] = tested on: Enterobacter cloacae (clinical isolate); assay: Antibacterial microdilution (MIC/MBC); assay type: cell-based; conditions: Enterobacter cloacae, En.cl (En. cloacae); for MIC: read-out: MIC
Method: as §1, §2

[6] = tested on: Escherichia coli (ATCC 35210); assay: Antibacterial microdilution (MIC/MBC); assay type: cell-based; conditions: E. coli
Method: as §1, §2

[7] = tested on: Salmonella typhimurium (ATCC 13311); assay: Antibacterial microdilution (MIC/MBC); assay type: cell-based; conditions: S.t. (S. typhimurium)
Method: as §1, §2

[8] = tested on: Bacillus cereus (clinical isolate); assay: Antibacterial microdilution (MIC/MBC); assay type: cell-based; conditions: B.c. (B. cereus)
Method: as §1, §2

[9] = tested on: Trichoderma viride (IAM 5061); assay: Antifungal bioassay (MIC/MFC); assay type: cell-based; conditions: Trichoderma viride, IAM5061, T.v. (T. viride); for MIC: read-out: MIC
Method: (§3) For the antifungal bioassays, six fungi were used: […] The organisms were obtained from the Mycological Laboratory, Department of Plant Physiology, Institute for Biological Research “Siniša Stankovic”, Belgrade, Serbia. All experiments were performed in duplicate.

[10] = tested on: Aspergillus niger (ATCC 6275); assay: Antifungal bioassay (MIC/MFC); assay type: cell-based; conditions: ATCC6275, A.n. (A. niger)
Method: as §3

[11] = tested on: P. ochrochloron; assay: Antifungal bioassay (MIC/MFC); assay type: cell-based; conditions: for MIC: P.o. (P. ochrochloron; text: P. ochramensis); for MFC: P.o. (P. ochrochloron)
Method: as §3

[12] = tested on: Penicillium funiculosum (ATCC 36839); assay: Antifungal bioassay (MIC/MFC); assay type: cell-based; conditions: Talaromyces funiculosus, ATCC36839; P.f. (P. funiculosum)
Method: as §3

[13] = tested on: Aspergillus versicolor (ATCC 11730); assay: Antifungal bioassay (MIC/MFC); assay type: cell-based; conditions: ATCC11730, A.v. (A. versicolor)
Method: as §3

[14] = tested on: A. ochraceus; assay: Antifungal bioassay (MIC/MFC); assay type: cell-based; conditions: A.o. (A. ochraceus)
Method: as §3

[15] = tested on: Aspergillus fumigatus (ATCC 1022); assay: Antifungal bioassay (MIC/MFC); assay type: cell-based; conditions: ATCC1022, A.f. (A. fumigatus)
Method: as §3

[16] = tested on: Penicillium verrucosum var. cyclopium (food isolate); assay: Antifungal bioassay (MIC/MFC); assay type: cell-based
Method: For the antifungal bioassays, six fungi were used: Aspergillus niger (ATCC 6275), Aspergillus fumigatus (ATCC 1022), Aspergillus versicolor (ATCC 11730), Penicillium funiculosum (ATCC 36839), Trichoderma viride (IAM 5061), and Penicillium verrucosum var. cyclopium (food isolate). The organisms were obtained from the Mycological Laboratory, Department of Plant Physiology, Institute for Biological Research “Siniša Stankovic”, Belgrade, Serbia. All experiments were performed in duplicate.

[17] = Staphylococcus aureus, ATCC6538
[18] = Staphylococcus aureus, ATCC6538, read-out: MIC
[19] = Escherichia coli, ATCC35210, read-out: MIC
[20] = Salmonella enterica, read-out: MIC
[21] = Penicillium ochrochloron, read-out: MIC

| SMILES | MBC [1] [µg/mL] | MIC [1] [µg/mL] | MBC [2] [µg/mL] | MIC [2] [µg/mL] | MBC [3] [µg/mL] | MIC [3] [µg/mL] | MBC [4, 17] [µg/mL] | MIC [4, 18] [µg/mL] | MBC [5] [µg/mL] | MIC [5] [µg/mL] | MBC ([6]; Escherichia coli, ATCC35210) [µg/mL] | MIC [6, 19] [µg/mL] | MBC ([7]; Salmonella enterica) [µg/mL] | MIC [7, 20] [µg/mL] | MIC [8] [µg/mL] | MBC ([8]; Bacillus cereus) [µg/mL] | MIC ([8]; Bacillus cereus, read-out: MIC) [µg/mL] | MFC [9] [µg/mL] | MIC [9] [µg/mL] | MFC [10] [µg/mL] | also measured |
| --- | --- | --- | --- | --- | --- | --- | --- | --- | --- | --- | --- | --- | --- | --- | --- | --- | --- | --- | --- | --- | --- |
| COC(=O)c1[nH]c2ccccc2c1/C=C1\SC(=S)N(CCCCCC(=O)O)C1=O [Compound 1, (Z)-6-(5-((2-(methoxycarbonyl)-1H-indol-3-yl)methylene)-4-oxo-2-thioxothiazolidin-3-yl)hexanoic acid] | 60 ± 6 (≈ 139 µM) | 22 ± 5 (≈ 50.9 µM) | 60 ± 6 (≈ 139 µM) | 22 ± 4 (≈ 50.9 µM) | 30 ± 10 (≈ 69.4 µM) | 22 ± 5 (≈ 50.9 µM) | 30 ± 10 (≈ 69.4 µM) | 22 ± 5 (≈ 50.9 µM) | 30 ± 10 (≈ 69.4 µM) | 22 ± 5 (≈ 50.9 µM) | 30 ± 10 (≈ 69.4 µM) | 15 (≈ 34.7 µM) | 30 ± 10 (≈ 69.4 µM) | 15 (≈ 34.7 µM) | 15 ± 9 (≈ 34.7 µM) | 30 ± 10 (≈ 69.4 µM) | 15 (≈ 34.7 µM) | 30 ± 10 (≈ 69.4 µM) | 15 ± 3 (≈ 34.7 µM) | 30 ± 10 (≈ 69.4 µM) | MIC [6]: 15 ± 9 µg/mL (≈ 34.7 µM); MIC [7]: 15 ± 9 µg/mL (≈ 34.7 µM); MIC [10]: 22 ± 5 µg/mL (≈ 50.9 µM); MIC [11]: 4 ± 1 µg/mL (≈ 9.25 µM); MFC ([11]; Penicillium ochrochloron): 8 ± 0.6 µg/mL (≈ 18.5 µM); MIC [11, 21]: 4 µg/mL (≈ 9.25 µM); MFC [12]: 30 ± 10 µg/mL (≈ 69.4 µM); MIC [12]: 15 ± 3 µg/mL (≈ 34.7 µM); MFC [13]: 60 ± 6 µg/mL (≈ 139 µM); MIC [13]: 30 ± 10 µg/mL (≈ 69.4 µM); MIC [14]: 8 ± 0.6 µg/mL (≈ 18.5 µM); MFC ([14]; Aspergillus ochraceus): 15 ± 3 µg/mL (≈ 34.7 µM); MIC ([14]; Aspergillus ochraceus, read-out: MIC): 8 µg/mL (≈ 18.5 µM); MFC [15]: 120 ± 40 µg/mL (≈ 277 µM); MIC [15]: 60 ± 6 µg/mL (≈ 139 µM); melting point: 135 to 138 °C; MFC [16]: 60 ± 6 µg/mL (≈ 139 µM); MIC [16]: 30 ± 10 µg/mL (≈ 69.4 µM) |
| COC(=O)c1[nH]c2ccccc2c1/C=C1\SC(=S)N(c2ccc(C(=O)O)cc2)C1=O [Compound 2, (Z)-4-(5-((2-(methoxycarbonyl)-1H-indol-3-yl)methylene)-4-oxo-2-thioxothiazolidin-3-yl)benzoic acid] | 60 ± 6 (≈ 137 µM) | 30 ± 10 (≈ 68.4 µM) | 60 ± 6 (≈ 137 µM) | 30 ± 10 (≈ 68.4 µM) | 30 ± 10 (≈ 68.4 µM) | 22 ± 5 (≈ 50.2 µM) | 30 ± 10 (≈ 68.4 µM) | 15 (≈ 34.2 µM) | 30 ± 10 (≈ 68.4 µM) | 15 ± 9 (≈ 34.2 µM) | 30 ± 10 (≈ 68.4 µM) | 22 ± 5 (≈ 50.2 µM) | 30 ± 10 (≈ 68.4 µM) | 22 ± 5 (≈ 50.2 µM) | 15 ± 9 (≈ 34.2 µM) | 30 ± 10 (≈ 68.4 µM) | 15 (≈ 34.2 µM) | 15 ± 3 (≈ 34.2 µM) | 8 ± 0.6 (≈ 18.2 µM) | 30 ± 10 (≈ 68.4 µM) | MIC [4]: 15 ± 9 µg/mL (≈ 34.2 µM); MIC [10]: 22 ± 5 µg/mL (≈ 50.2 µM); MFC ([11]; Penicillium ochrochloron): 30 ± 10 µg/mL (≈ 68.4 µM); MIC [11, 21]: 15 ± 3 µg/mL (≈ 34.2 µM); MFC [12]: 30 ± 10 µg/mL (≈ 68.4 µM); MIC [12]: 15 ± 3 µg/mL (≈ 34.2 µM); MFC [13]: 30 ± 10 µg/mL (≈ 68.4 µM); MIC [13]: 15 ± 3 µg/mL (≈ 34.2 µM); MFC ([14]; Aspergillus ochraceus): 15 ± 3 µg/mL (≈ 34.2 µM); MFC [15]: 60 ± 6 µg/mL (≈ 137 µM); MIC [15]: 30 ± 10 µg/mL (≈ 68.4 µM); melting point: 294 to 295 °C; MFC [16]: 60 ± 6 µg/mL (≈ 137 µM); MIC [16]: 30 ± 10 µg/mL (≈ 68.4 µM) |
